From US8999966B2, “Compounds that are ERK inhibitors” (Merck Sharp & Dohme Corp., priority 2010, dated 2015)

Target: fully phosphorylated, active Mouse ERK2 protein (Mus musculus, UniProt P63085)
Experiment: Active ERK2 assay (AERK2), IMAP format
Assay type: biochemical
Details: activated ERK2, IMAP fluorescence polarization, 30 μM ATP
Experimental: 14 μl of kinase buffer (10 mM Tris.HCl pH 7.2, 10 mM MgCl2, 0.01% Tween-20, 1 mM DTT) containing 0.4 ng unphosphorylated Mouse ERK2 protein can be added to each well of a black 384-well assay plate. […] DMSO concentration during initial incubation is 6.7%. ERK2 activity can be determined to be insensitive to DMSO concentrations up to 20%. ERK2 can then be activated and it's kinase activity can be measured by the addition of 10 μl kinase buffer with the following components (final concentration per reaction): 2 ng active (phosphorylated) human MEK1 protein and 4 μM (total) ERK2 IMAP substrate peptides (3.9 μM unlabeled IPTTPITTTYFFFK-CONH2 and 100 nM IPTTPITTTYFFFK(5-carboxyfluorescein)-CONH2) and 30 μM ATP. DMSO concentration during ERK activation can be 4%. After one hour, reactions can be terminated by addition of 60 μl IMAP detections beads in binding buffer (Molecular Devices). Binding can be allowed to equilibrate for 30 minutes before reading the plate on an LJL Analyst Fluorescence Polarization plate reader. […] Active compounds can be reconfirmed in an independent assay.
Activated ERK2 activity was also determined in the IMAP assay format using the procedure outlined above. 1 μl of 25× compound was added to 14 μl of kinase buffer containing 0.25 ng fully phosphorylated, active Mouse ERK2 protein. Following a 30 minute incubation, the reactions were initiated by addition of 10 μl of kinase buffer containing 1 μM ERK2 IMAP substrate peptide (0.9 μM unlabeled IPTTPITTTYFFFK-CONH2 and 100 nM IPTTPITTTYFFFK(5-carboxyfluorescein)-CONH2) and 30 μM ATP. Reactions proceeded for 30 minutes before termination by addition of 60 μl IMAP detection beads in binding buffer. Plates were read as above after 30 minute binding equilibration. Active compounds were reconfirmed in an independent assay.

fully phosphorylated, active Mouse ERK2 protein, sequence (P63085 whole entry): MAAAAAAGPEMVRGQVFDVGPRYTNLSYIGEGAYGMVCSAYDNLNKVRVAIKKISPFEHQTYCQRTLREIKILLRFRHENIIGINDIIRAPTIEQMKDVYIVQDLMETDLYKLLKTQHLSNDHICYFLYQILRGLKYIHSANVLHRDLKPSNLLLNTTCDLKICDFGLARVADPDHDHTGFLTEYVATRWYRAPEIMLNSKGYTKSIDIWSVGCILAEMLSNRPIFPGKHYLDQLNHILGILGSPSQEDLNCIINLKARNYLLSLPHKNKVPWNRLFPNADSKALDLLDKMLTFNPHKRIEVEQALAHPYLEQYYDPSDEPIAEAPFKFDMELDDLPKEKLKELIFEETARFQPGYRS

SMILES	IC50
Cc1n[nH]c2ccc(-c3n[nH]c4ccc(-n5cc([C@@H]6CCCN(Cc7c(F)cccc7F)C6)nn5)cc34)cc12 [Example 247, 5-[4-[1-[(2,6- DIFLUOROPHENYL)METHYL]- 3(R)-PIPERIDINYL]-1H- 1,2,3-TRIAZOL-1-YL]-3′- METHYL-3,5′-BI-1H- INDAZOLE]	≥ 504 nM
Fc1cccc(F)c1CN1CCC[C@@H](c2cn(-c3ccc4[nH]nc(-c5ccnc6[nH]ccc56)c4c3)nn2)C1 [Example 248, 5-[4-[1-[(2,6- DIFLUOROPHENYL)METHYL]- 3(R)-PIPERIDINYL]-1H- 1,2,3-TRIAZOL-1-YL]-3-(1H PYRROLO[2,3-b]PYRIDIN-4- YL)-1H-INDAZOLE]	≥ 504 nM
Fc1ccccc1CN1CCOC(c2cn(-c3ccc4[nH]nc(-c5ccncc5)c4c3)nn2)C1 (stereo not drawn) [Example 249, 5-[4-[4-[(2- FLUOROPHENYL)METHYL]- 2-MORPHOLINYL]-1H-1,2,3- TRIAZOL-1-YL]-3-(4- PYRIDINYL)-1H-INDAZOLE]	0.3 to 10.4 nM
COc1cccc(F)c1CN1CCOC(c2cn(-c3ccc4[nH]nc(-c5ccncc5)c4c3)nn2)C1 (stereo not drawn) [Example 251, 5-[4-[4-[(2-FLUORO-6- METHOXYPHENYL)METHYL]- 2-MORPHOLINYL]-1H- 1,2,3-TRIAZOL-1-YL]-3-(4- PYRIDINYL)-1H-INDAZOLE]	0.3 to 10.4 nM
COc1cccc(F)c1CN1CC=CC[C@@H]1c1nc(-c2ccc3[nH]nc(-c4ccc5c(c4)CCO5)c3c2)n[nH]1 [Example 253, 3-(2,3-DIHYDRO-5- BENZOFURANYL)-5-[5-[1-[(2- FLUORO-6- METHOXYPHENYL)METHYL]- 1,2,3,6-TETRAHYDRO- 2(R)-PYRIDINYL]-1H-1,2,4- TRIAZOL-3-YL]-1H- INDAZOLE]	≥ 504 nM
Fc1cccc(F)c1CN1CC=CC[C@@H]1c1nc(-c2ccc3[nH]nc(-c4ccc5c(c4)CCO5)c3c2)n[nH]1 [Example 254, 5-[5-[1-[(2,6- DIFLUOROPHENYL)METHYL]- 1,2,3,6-TETRAHYDRO- 2(R)-PYRIDINYL]-1H-1,2,4- TRIAZOL-3-YL]-3-(2,3- DIHYDRO-5- BENZOFURANYL)-1H- INDAZOLE]	≥ 504 nM
C1=CCN(Cc2cccs2)[C@@H](c2nc(-c3ccc4[nH]nc(-c5ccc6c(c5)CCO6)c4c3)n[nH]2)C1 [Example 255, 3-(2,3-DIHYDRO-5- BENZOFURANYL)-5-[5- [1,2,3,6-TETRAHYDRO-1-(2- THIENYLMETHYL)-2(R)- PYRIDINYL]-1H-1,2,4- TRIAZOL-3-YL]-1H- INDAZOLE]	≥ 504 nM
C1=CCN(Cc2ccon2)[C@@H](c2nc(-c3ccc4[nH]nc(-c5ccc6c(c5)CCO6)c4c3)n[nH]2)C1 [Example 256, 3-(2,3-DIHYDRO-5- BENZOFURANYL)-5-[5- [1,2,3,6-TETRAHYDRO-1-(3- ISOXAZOLYLMETHYL)-2(R)- PYRIDINYL]-1H-1,2,4- TRIAZOL-3-YL]-1H- INDAZOLE]	≥ 504 nM
COc1cccc(F)c1CN1CCCCC1c1nc(-c2ccc3[nH]nc(-c4ccc5c(c4)CCO5)c3c2)n[nH]1 (stereo not drawn) [Example 258, 3-(2,3-DIHYDRO-5- BENZOFURANYL)-5-[5-[1-[(2- FLUORO-6- METHOXYPHENYL)METHYL]- 2-PIPERIDINYL]-1H-1,2,4- TRIAZOL-3-YL]-1H- INDAZOLE]	> 1000 nM
COc1cccc(F)c1CN1CCCCC1c1nc(-c2ccc3[nH]nc(-c4ccc(OC(C)C)cc4)c3c2)n[nH]1 (stereo not drawn) [Example 259, 5-[5-[1-[(2-FLUORO-6- METHOXYPHENYL)METHYL]- 2-PIPERIDINYL]-1H-1,2,4- TRIAZOL-3-YL]-3-[4-(1- METHYLETHOXY)PHENYL]- 1H-INDAZOLE]	> 1000 nM
c1csc(CN2CCC[C@@H](c3nc(-c4ccc5[nH]nc(-c6ccc7c(c6)CCO7)c5c4)n[nH]3)C2)c1 [Example 298, 3-(2,3-DIHYDRO-5- BENZOFURANYL)-5-[5-[1-(2- THIENYLMETHYL)-3(R)- PIPERIDINYL]-1H-1,2,4- TRIAZOL-3-YL]-1H- INDAZOLE]	≥ 504 nM
CC(C)Oc1ccc(-c2n[nH]c3ccc(-c4n[nH]c([C@@H]5CCCN(Cc6c(F)cccc6F)C5)n4)cc23)cc1 [Example 299, 5-[5-[1-[(2,6- DIFLUOROPHENYL)METHYL]- 3(R)-PIPERIDINYL]-1H- 1,2,4-TRIAZOL-3-YL]-3-[4-(1- METHYLETHOXY)PHENYL]- 1H-INDAZOLE]	≥ 504 nM
